Data: patent publication US20090215849A1, “High stability aqueous gels comprising metronidazole and methods for the preparation thereof” (GALDERMA S.A., priority 2005, published 2009)

Assay: Solubility of metronidazole in water
Format: physicochemical
Details: water/propylene glycol mixtures said to give higher solubilities (values not given)
Description: Without wishing to be bound by any particular theory, it is possible that the stabilizing effect according to the invention is at least partly due to the fact that a mixture of water and propylene glycol allows a very good solubilization of metronidazole, in particular when the water and the propylene glycol are present in the abovementioned advantageous ranges, whereas a lower solubilization is obtained when the propylene glycol is introduced after the dissolution of the metronidazole in water, even when the propylene glycol is post-introduced in large quantities as in the method of U.S. Pat. No. 4,837,378.

solubility in water: ~0.78%
Structure (SMILES): Cc1ncc([N+](=O)[O-])n1CCO [Metronidazole, 1-(2-hydroxyethyl)-2-methyl-5-nitroimidazole]
